This note sets out measurements from ChEMBL document CHEMBL4017527, “Are We There Yet? Applying Thermodynamic and Kinetic Profiling on Embryonic Ectoderm Development (EED) Hit-to-Lead Program” (J Med Chem, 2017).

For assay [1], the target named is T1, Polycomb protein EED (Homo sapiens, UniProt O75530). The assay is described as follows: Binding affinity to GST tagged EED (unknown origin) after 1 hr by OG(488) probe based TR-FRET assay.
In assay [2] the target is T1, Polycomb protein EED. The assay is described as follows: Binding affinity to biotin labelled human EED (78 to 441 residues) by SPR assay.
The target in assay [3] is T1, Polycomb protein EED. The assay is described as follows: Binding affinity to His tagged human EED (77 to 441 residues) expressed in Escherichia coli BL21(DE3)-T1R by ITC method. As to conditions: read-out: Kd(app).

pKd, pKi: −log10 of the molar value.

T1 sequence (O75530 whole entry, the tested form may be a part): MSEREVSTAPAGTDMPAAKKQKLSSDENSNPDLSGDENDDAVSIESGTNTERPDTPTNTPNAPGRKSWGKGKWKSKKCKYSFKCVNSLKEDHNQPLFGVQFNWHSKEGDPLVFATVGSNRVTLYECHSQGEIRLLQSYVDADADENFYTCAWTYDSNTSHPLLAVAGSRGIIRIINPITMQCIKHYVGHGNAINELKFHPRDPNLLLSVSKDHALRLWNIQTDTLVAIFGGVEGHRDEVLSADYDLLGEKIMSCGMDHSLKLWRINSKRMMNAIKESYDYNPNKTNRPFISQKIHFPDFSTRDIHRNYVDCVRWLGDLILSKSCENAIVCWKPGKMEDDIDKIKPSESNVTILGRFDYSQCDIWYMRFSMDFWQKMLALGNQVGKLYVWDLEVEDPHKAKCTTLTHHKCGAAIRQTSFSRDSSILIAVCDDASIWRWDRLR

As for `CC(=O)N1CCN(c2ccc([C@H]3CN(C4CCc5cccc(F)c54)C[C@@H]3N(C)C)cc2)CC1` (some centres not stated), the negative-log Ki (pKi) on Polycomb protein EED [1] was 9.15. In addition, the pKd on Polycomb protein EED [2] is 8.40; at Polycomb protein EED [3], 5.68.
`CN(C)c1cc(N2CCc3ccccc3C2)ccn1`: at Polycomb protein EED [1], the negative-log Ki (pKi) is 6.17. Moreover, the pKd on Polycomb protein EED [3] is 5.60.
In turn, `CN(C)[C@@H]1CN(Cc2c(F)cccc2Br)C[C@H]1c1cn(C)c2ccccc12` had a pKi on Polycomb protein EED [1] of 7.10. The pKd on Polycomb protein EED [2] was 5.51; at Polycomb protein EED [3], 6.43.
`CC(=O)N1CCN(c2ccc([C@H]3CN([C@@H]4CCc5cccc(F)c54)C[C@@H]3N(C)C)cc2)CC1` had a pKi at Polycomb protein EED [1] of 8.52. The pKd at Polycomb protein EED [2] is 7.00; on Polycomb protein EED [3], 5.94.
On to `Cc1cccc(F)c1CN1C[C@H](c2ccc(S(C)(=O)=O)cc2)[C@@H](N(C)C)C1`, for which the pKi on Polycomb protein EED [1] is 8.00. For the same compound, the pKd at Polycomb protein EED [2] was 6.85; at Polycomb protein EED [3], 7.52.
At Polycomb protein EED [1], `COc1ccccc1N1CCN(C(=O)c2ccccc2S(C)(=O)=O)CC1` showed a negative-log Ki (pKi) of 5.82. The compound further gave a pKd at Polycomb protein EED [2] of 4.87.
For the compound `CN(C)[C@H]1CN(Cc2c(F)cccc2Br)C[C@@H]1c1cn(C)c2ccccc12`, at Polycomb protein EED [1], the pKi was 7.70 to 8.00. Also, the pKd at Polycomb protein EED [2] was 6.51 to 6.82; on Polycomb protein EED [3], 7.05.
The matching figures for `CC(=O)N1CCN(c2ccc([C@@H]3CN([C@@H]4CCc5cccc(F)c54)C[C@H]3N(C)C)cc2)CC1`: 7.74, 6.70 and 6.96.
In turn, `COc1ccc([C@H]2CN(Cc3c(C)cccc3F)C[C@@H]2N(C)C)cc1OC` had a negative-log Ki (pKi) on Polycomb protein EED [1] of 7.92. This compound also gave a pKd at Polycomb protein EED [2] of 6.68.
`COc1ccc([C@H]2CN(Cc3c(F)cccc3Br)C[C@@H]2N(C)C)cc1OC`: the negative logarithm of the Ki (pKi) at Polycomb protein EED [1] was 7.74. The compound also had a negative logarithm of the Kd (pKd) on Polycomb protein EED [2] of 6.52.
Regarding `CN(C)[C@H]1CN([C@H]2CCc3cccc(F)c32)C[C@@H]1c1cn(C)c2ccccc12`, on Polycomb protein EED [3], the pKd is 8.00.
As to `CC(=O)N1CCN(c2ccc([C@H]3CN(Cc4c(C)cccc4F)C[C@@H]3N(C)C)cc2)CC1`, the negative-log Ki (pKi) on Polycomb protein EED [1] was 8.52. On Polycomb protein EED [2], this compound had a negative-log Kd (pKd) of 7.70.
`CC(=O)N1CCN(c2ccc([C@H]3CN([C@H]4CCc5cccc(F)c54)C[C@@H]3N(C)C)cc2)CC1` had a pKi on Polycomb protein EED [1] of 9.52. The negative logarithm of the Kd (pKd) on Polycomb protein EED [2] was 9.00; on Polycomb protein EED [3] it was 8.00.
In turn, `CN(C)[C@H]1CN(Cc2c(F)cccc2Br)C[C@@H]1c1ccccc1` had a negative logarithm of the Ki (pKi) at Polycomb protein EED [1] of 6.96. Moreover, the pKd on Polycomb protein EED [2] is 5.32.
For the compound `Cc1cccc(F)c1CN1C[C@H](c2cn(C)c3ccccc23)[C@@H](N(C)C)C1`, the negative-log Kd (pKd) on Polycomb protein EED [3] was 8.22.
On to `CC(=O)N1CCN(c2ccc([C@@H]3CN([C@H]4CCc5cccc(F)c54)C[C@H]3N(C)C)cc2)CC1`, for which, at Polycomb protein EED [1], the negative logarithm of the Ki (pKi) is 7.38. Also, the pKd was 6.54 on Polycomb protein EED [2] and 5.66 on Polycomb protein EED [3].
The compound `CN(C)[C@H]1CN(Cc2c(F)cccc2Br)C[C@@H]1c1ccccn1` showed a pKi at Polycomb protein EED [1] of 6.35. Also, the negative-log Kd (pKd) at Polycomb protein EED [2] was 5.01.
On to `Cc1cccc(F)c1CN1C[C@@H](N(C)C)[C@H](c2ccc(S(C)(=O)=O)cc2)C1`, for which, at Polycomb protein EED [1], the negative logarithm of the Ki (pKi) was 6.54. Also, the pKd is 5.85 at Polycomb protein EED [2] and 6.03 on Polycomb protein EED [3].
Turning to `CN(C)[C@H]1CN(Cc2c(F)cc(O)cc2Br)C[C@@H]1c1cn(C)c2ccccc12`, the pKi on Polycomb protein EED [1] is 8.10. At Polycomb protein EED [2], this compound gave a pKd of 7.21.
The matching figures for `COc1ccc([C@H]2CN(C3CCc4cccc(F)c43)C[C@@H]2N(C)C)cc1OC` (some centres not stated): 8.52 and 7.37.
With `CN(C)[C@H]1CN(Cc2c(F)cccc2Br)C[C@@H]1c1ccc(O)cc1`, the negative-log Ki (pKi) at Polycomb protein EED [1] was 7.04. On Polycomb protein EED [2], the negative-log Kd (pKd) is 5.59.
Take `c1ccc2c(c1)CCN(c1ccncc1)C2`: the negative logarithm of the Ki (pKi) on Polycomb protein EED [1] was 6.02. The negative logarithm of the Kd (pKd) is 4.66 at Polycomb protein EED [2] and 5.28 on Polycomb protein EED [3].
